From PMC7915724 (2021)

Legend:
Experiment in all cases: SPR
[1] = tested on: biotin-Pu24 (VEGF G-quadruplex) (DNA, G4) CCGGGGCGGGCCGGGGGCGGGGTC; conditions: 100 mM KCl; 20 mM Tris-HCl pH 7.4, 25 °C; tested up to 50 μM
[2] = tested on: biotin-Hairpin (duplex DNA) (DNA, hairpin, HEG (hexaethylene glycol) linker between 10 and 11) TATAGCTATATATAGCTATA; conditions: 100 mM KCl; 20 mM Tris-HCl pH 7.4, 25 °C; tested up to 50 μM
[3] = tested on: biotin-Py24 (VEGF i-motif) (DNA, i motif) GACCCCGCCCCCGGCCCGCCCCGG; conditions: 100 mM KCl, 20 mM MES pH 5.5, 0.05% Tween-20, 25 °C
[4] = tested on: biotin-Py24 (VEGF i-motif) (DNA, i motif) GACCCCGCCCCCGGCCCGCCCCGG; conditions: 100 mM KCl; 20 mM MES pH 5.5, 0.05% Tween-20, 25 °C; tested up to 50 μM

Row | KD [1] [µM] | KD [2] [µM] | KD ([3]; tested up to 50 μM) [µM] | KD [3] [µM] | KD [4] [µM] | SMILES
1 | > 50 | > 50 | > 50 | – | – | COC(=O)[C@]12CCC(C)(C)C[C@H]1C1=CC[C@@H]3[C@@]4(C)C=C(C(=O)O)C(=O)C(C)(C)[C@@H]4CC[C@@]3(C)[C@]1(C)CC2
2 | > 50 | > 50 | – | 12.3 | – | CC1(C)CC[C@]2(C(=O)NCc3cn(-c4ncccn4)nn3)CC[C@]3(C)C(=CC[C@@H]4[C@@]5(C)CC[C@H](O)C(C)(C)[C@@H]5CC[C@]43C)[C@@H]2C1
3 | > 50 | > 50 | – | – | > 50 | CC1(C)CC[C@]2(C(=O)N3CCN(c4ccccn4)CC3)CC[C@]3(C)C(=CC[C@@H]4[C@@]5(C)CC[C@H](O)C(C)(C)[C@@H]5CC[C@]43C)[C@@H]2C1
4 | – | – | – | – | > 50 | COC(=O)[C@]12CCC(C)(C)C[C@H]1C1=CC[C@@H]3[C@@]4(C)C=C(C(=O)NCCCc5ccccc5)C(=O)C(C)(C)[C@@H]4CC[C@@]3(C)[C@]1(C)CC2
5 | > 50 | > 50 | – | – | > 50 | CC1(C)CC[C@]2(C(=O)NCc3cn(CCCc4ccccc4)nn3)CC[C@]3(C)C(=CC[C@@H]4[C@@]5(C)CC[C@H](O)C(C)(C)[C@@H]5CC[C@]43C)[C@@H]2C1
6 | > 50 | > 50 | > 50 | – | – | COC(=O)[C@]12CCC(C)(C)C[C@H]1[C@H]1C(=O)C[C@@H]3[C@@](C)(CCC(=O)NCCCN(C)C)[C@H](C(C)(C)O)CC[C@@]3(C)[C@]1(C)CC2
7 | – | – | – | – | > 50 | CC1(C)CC[C@]2(C(=O)NCc3cn(Cc4ccc(C(F)(F)F)cc4)nn3)CC[C@]3(C)C(=CC[C@@H]4[C@@]5(C)CC[C@H](O)C(C)(C)[C@@H]5CC[C@]43C)[C@@H]2C1
8 | > 50 | > 50 | > 50 | – | – | CCN(CC)CCNC(=O)C1=C[C@]2(C)[C@H]3CC=C4[C@@H]5CC(C)(C)CC[C@]5(C(=O)OC)CC[C@@]4(C)[C@]3(C)CC[C@H]2C(C)(C)C1=O
9 | > 50 | > 50 | – | – | > 50 | COc1ccccc1N1CCN(C(=O)[C@]23CCC(C)(C)C[C@H]2C2=CC[C@@H]4[C@@]5(C)CC[C@H](O)C(C)(C)[C@@H]5CC[C@@]4(C)[C@]2(C)CC3)CC1
10 | – | – | – | – | > 50 | COC(=O)[C@]12CCC(C)(C)C[C@H]1[C@H]1C(=O)C[C@@H]3[C@@](C)(CCC(=O)N4CCN(c5ccc(F)cc5F)CC4)[C@H](C(C)(C)O)CC[C@@]3(C)[C@]1(C)CC2
11 | – | – | – | – | > 50 | COC(=O)[C@]12CCC(C)(C)C[C@H]1[C@H]1C(=O)C[C@@H]3[C@@](C)(CCC(=O)NCCc4cccs4)[C@H](C(C)(C)O)CC[C@@]3(C)[C@]1(C)CC2
12 | – | – | – | – | > 50 | CC1(C)CC[C@]2(C(=O)NCc3cn(CCN4CCOCC4)nn3)CC[C@]3(C)C(=CC[C@@H]4[C@@]5(C)CC[C@H](O)C(C)(C)[C@@H]5CC[C@]43C)[C@@H]2C1
13 | > 50 | > 50 | – | 13.8 | – | CC1(C)CC[C@]2(C(=O)NCCNS(=O)(=O)N3CCOCC3)CC[C@]3(C)C(=CC[C@@H]4[C@@]5(C)CC[C@H](O)C(C)(C)[C@@H]5CC[C@]43C)[C@@H]2C1
14 | > 50 | > 50 | – | 19.3 | – | CC1(C)CC[C@]2(C(=O)NCc3cn(CCC#N)nn3)CC[C@]3(C)C(=CC[C@@H]4[C@@]5(C)CC[C@H](O)C(C)(C)[C@@H]5CC[C@]43C)[C@@H]2C1
15 | > 50 | > 50 | – | – | > 50 | CC1(C)CC[C@]2(C(=O)N3CCN(c4ncccn4)CC3)CC[C@]3(C)C(=CC[C@@H]4[C@@]5(C)CC[C@H](O)C(C)(C)[C@@H]5CC[C@]43C)[C@@H]2C1
16 | – | – | – | – | > 50 | CC1(C)CC[C@]2(C(=O)NCc3cn(CCCN4CCOCC4)nn3)CC[C@]3(C)C(=CC[C@@H]4[C@@]5(C)CC[C@H](O)C(C)(C)[C@@H]5CC[C@]43C)[C@@H]2C1
17 | – | – | – | – | > 50 | CC(=O)OC[C@H]1O[C@@H](n2cc(CNC(=O)[C@]34CCC(C)(C)C[C@H]3C3=CC[C@@H]5[C@@]6(C)CC[C@H](O)C(C)(C)[C@@H]6CC[C@@]5(C)[C@]3(C)CC4)nn2)[C@H](OC(C)=O)[C@@H](OC(C)=O)[C@@H]1OC(C)=O
18 | > 50 | > 50 | – | – | > 50 | CC1(C)CC[C@]2(C(=O)N3CCN(C(=O)Cn4cnc5[nH]c(=O)[nH]c(=O)c54)CC3)CC[C@]3(C)C(=CC[C@@H]4[C@@]5(C)CC[C@H](O)C(C)(C)[C@@H]5CC[C@]43C)[C@@H]2C1
19 | – | – | – | – | > 50 | CC1(C)CC[C@]2(C(=O)NCc3cn(CCCN4CCCC4)nn3)CC[C@]3(C)C(=CC[C@@H]4[C@@]5(C)CC[C@H](O)C(C)(C)[C@@H]5CC[C@]43C)[C@@H]2C1
20 | > 50 | > 50 | > 50 | – | – | COc1ccc(C(=O)NCCNC(=O)[C@]23CCC(C)(C)C[C@H]2C2=CC[C@@H]4[C@@]5(C)CC[C@H](O)C(C)(C)[C@@H]5CC[C@@]4(C)[C@]2(C)CC3)c(OC)c1

Row | KD [1] [µM] | KD [2] [µM] | KD ([3]; tested up to 50 μM) [µM] | KD [3] [µM] | KD [4] [µM] | SMILES
21 | – | – | – | – | > 50 | COC(=O)[C@]12CCC(C)(C)C[C@H]1C1=CC[C@@H]3[C@@]4(C)C=C(C(=O)NCCc5ccc(C(F)(F)F)cc5)C(=O)C(C)(C)[C@@H]4CC[C@@]3(C)[C@]1(C)CC2
22 | – | – | – | – | > 50 | COC(=O)[C@]12CCC(C)(C)C[C@H]1[C@H]1C(=O)C[C@@H]3[C@@](C)(CCC(=O)Nc4ccc(OC(F)(F)F)cc4)[C@H](C(C)(C)O)CC[C@@]3(C)[C@]1(C)CC2
23 | > 50 | > 50 | > 50 | – | – | CC1(C)CC[C@]2(C(=O)N3CCC(N4CCCCC4)CC3)CC[C@]3(C)C(=CC[C@@H]4[C@@]5(C)CC[C@H](O)C(C)(C)[C@@H]5CC[C@]43C)[C@@H]2C1
24 | > 50 | > 50 | – | 21.1 | – | COC(=O)[C@]12CCC(C)(C)C[C@H]1[C@H]1C(=O)C[C@@H]3[C@@](C)(CCC(=O)NCCCn4ccnc4)[C@H](C(C)(C)O)CC[C@@]3(C)[C@]1(C)CC2
25 | – | – | – | – | > 50 | COC(=O)[C@]12CCC(C)(C)C[C@H]1[C@H]1C(=O)C[C@@H]3[C@@](C)(CCC(=O)Nc4ccc(OC)cc4)[C@H](C(C)(C)O)CC[C@@]3(C)[C@]1(C)CC2
26 | > 50 | – | – | – | > 50 | CN(C)CCn1cc(CNC(=O)[C@]23CCC(C)(C)C[C@H]2C2=CC[C@@H]4[C@@]5(C)CC[C@H](O)C(C)(C)[C@@H]5CC[C@@]4(C)[C@]2(C)CC3)nn1
27 | > 50 | > 50 | – | 12.0 | – | CC1(C)CC[C@]2(C(=O)NCc3cn([C@@H]4O[C@H](CO)[C@@H](O)[C@H](O)[C@H]4O)nn3)CC[C@]3(C)C(=CC[C@@H]4[C@@]5(C)CC[C@H](O)C(C)(C)[C@@H]5CC[C@]43C)[C@@H]2C1
28 | > 50 | > 50 | – | – | > 50 | CC1(C)CC[C@]2(C(=O)NCCNC(=O)c3ccccc3Nc3ccccc3)CC[C@]3(C)C(=CC[C@@H]4[C@@]5(C)CC[C@H](O)C(C)(C)[C@@H]5CC[C@]43C)[C@@H]2C1
29 | > 50 | > 50 | – | – | > 50 | CC1(C)CC[C@]2(C(=O)NCc3cn(Cc4ccccc4)nn3)CC[C@]3(C)C(=CC[C@@H]4[C@@]5(C)CC[C@H](O)C(C)(C)[C@@H]5CC[C@]43C)[C@@H]2C1
30 | – | – | – | – | > 50 | COC(=O)[C@]12CCC(C)(C)C[C@H]1[C@H]1C(=O)C[C@@H]3[C@@](C)(CCC(=O)Nc4ccc(F)cc4)[C@H](C(C)(C)O)CC[C@@]3(C)[C@]1(C)CC2
31 | > 50 | > 50 | – | 31.3 | – | COC(=O)[C@]12CCC(C)(C)C[C@H]1[C@H]1C(=O)C[C@@H]3[C@@](C)(CCC(=O)NCCCN4CCOCC4)[C@H](C(C)(C)O)CC[C@@]3(C)[C@]1(C)CC2
32 | > 50 | > 50 | – | – | > 50 | Cc1cn(CC(=O)N2CCN(C(=O)[C@]34CCC(C)(C)C[C@H]3C3=CC[C@@H]5[C@@]6(C)CC[C@H](O)C(C)(C)[C@@H]6CC[C@@]5(C)[C@]3(C)CC4)CC2)c(=O)[nH]c1=O
33 | – | – | – | – | > 50 | COC(=O)[C@]12CCC(C)(C)C[C@H]1C1=CC[C@@H]3[C@@]4(C)C=C(C(=O)NCCCN5CCCC5)C(=O)C(C)(C)[C@@H]4CC[C@@]3(C)[C@]1(C)CC2
34 | > 50 | > 50 | – | 12.1 | – | CC1(C)CC[C@]2(C(=O)NCCc3c[nH]cn3)CC[C@]3(C)C(=CC[C@@H]4[C@@]5(C)CC[C@H](O)C(C)(C)[C@@H]5CC[C@]43C)[C@@H]2C1
35 | > 50 | > 50 | – | 10.6 | – | CC1(C)CC[C@]2(C(=O)NCc3cn(Cc4nc5ccccc5[nH]4)nn3)CC[C@]3(C)C(=CC[C@@H]4[C@@]5(C)CC[C@H](O)C(C)(C)[C@@H]5CC[C@]43C)[C@@H]2C1
36 | > 50 | > 50 | – | – | > 50 | CC1(C)CC[C@]2(C(=O)N3CCN(c4cccc(C(F)(F)F)c4)CC3)CC[C@]3(C)C(=CC[C@@H]4[C@@]5(C)CC[C@H](O)C(C)(C)[C@@H]5CC[C@]43C)[C@@H]2C1
37 | – | – | – | – | > 50 | CC1(C)CC[C@]2(C(=O)NCc3cn(CCN4CCCC4)nn3)CC[C@]3(C)C(=CC[C@@H]4[C@@]5(C)CC[C@H](O)C(C)(C)[C@@H]5CC[C@]43C)[C@@H]2C1
38 | > 50 | > 50 | – | 13.0 | – | CC1(C)CC[C@]2(C(=O)NCc3cn(CCC(=O)O)nn3)CC[C@]3(C)C(=CC[C@@H]4[C@@]5(C)CC[C@H](O)C(C)(C)[C@@H]5CC[C@]43C)[C@@H]2C1
39 | > 50 | > 50 | – | – | > 50 | CC1(C)CC[C@]2(C(=O)N3CCN(c4ccc(F)cc4F)CC3)CC[C@]3(C)C(=CC[C@@H]4[C@@]5(C)CC[C@H](O)C(C)(C)[C@@H]5CC[C@]43C)[C@@H]2C1
